Where “and” joins values, the source holds several entries; their conditions need not be identical. Identical values can stand only once. Counter-ions that a name gives are not always drawn.
Row | melting point | Compound
1 | 148 to 150 °C | N=C(NCCCCCCCCCCCC(=O)N1CCNCC1)NC(=O)c1nc(Cl)c(N)nc1N (as salt: hydrochloride) [ALB 27069, N-(3,5-Diamino-6-chloropyrazine-2-carbonyl)-N′-(12-oxo-12-piperazin-1-yl-dodecyl)guanidine dihydrochloride]
2 | 52 to 56 °C | CN(C)CCCNC(=O)CCCCCCCCCCN(C(=N)N)C(=O)c1nc(Cl)c(N)nc1N (as salt: salt) [ALB 27160, 11-[N-(3,5-Diamino-6-chloropyrazine-2-carbonyl)guanidino]undecanoic acid (3-dimethylaminopropyl)amide]
3 | 181 to 191 °C | N=C(N)N(CCCCCCCCCCC(=O)O)C(=O)c1nc(Cl)c(N)nc1N [ALB 26795, 11-[N-(3,5-Diamino-6-chloropyrazine-2-carbonyl)guanidino]undecanoic acid]
4 | 194 to 196 °C and 192 to 194 °C | N=C(NCCCCCCCCCCCC(=O)O)NC(=O)c1nc(Cl)c(N)nc1N [ALB 26799, 12-[N′-(3,5-diamino-6-chloropyrazine-2-carbonyl)guanidino]-dodecanoic acid]
5 | 82 to 84 °C | CN(C)CCCNC(=O)CCCCCCCCCCCNC(N)=NC(=O)c1nc(Cl)c(N)nc1N [ALB 26982, 12-[N′-(3,5-Diamino-6-chloropyrazine-2-carbonyl)guanidino]dodecanoic acid (3-dimethylaminopropyl)amide]
6 | 102 to 104 °C | NC(=NC(=O)c1nc(Cl)c(N)nc1N)NCCCCCCCCCCCC(=O)Nc1ncc[nH]1 [ALB 27070, 12-[N′-(3,5-Diamino-6-chloropyrazine-2-carbonyl)guanidino]dodecanoic acid (1H-imidazol-2-yl)amide]
7 | 69 to 72 °C | N=C(N)N(CCCCCCCCCCC(N)=O)C(=O)c1nc(Cl)c(N)nc1N [ALB 27317, 11-[N-(3,5-Diamino-6-chloropyrazine-2-carbonyl)guanidino]undecanoic acid amide]

Source: US7956059B2, “Aliphatic amide and ester pyrazinoylguanidine sodium channel blockers” (Parion Sciences, Inc., priority 2004, dated 2011)
